From patent publication US10556098B2, “Microneedle array coated with drug composition” (TEIJIN LIMITED, priority 2012, dated 2020) come the findings set out here.

The AUC is the area under the concentration-time curve, a measure of exposure. The low end stands for low exposure, the high end for high exposure.

Details of data set [1]: species or system SD rat. Conditions: rat, in vivo. The protocol: Additive: 0.5 w/w sodium carboxymethylcellulose ([…] % hydroxypropylcellulose 1000-5000 mPa·s […] Water: 97.75 w/w % The coater shown in FIG. 5 (the volume of a drug aqueous solution: 4 ml) was used. […] After coating said microneedle array with the solution, the microneedle array was dried at room temperature (20-25° C.) for 60 seconds. The hair of the nine-week old male SD rat's abdomen was removed with a hair clipper and a shaver. The microneedle array of FIG. 7 was pressed onto the rat's skin with a finger, and fixed with tape. After one hour, the microneedle array was removed. In order to evaluate the amount of residual desmopressin acetate (the amount remained on the skin surface and the amount attached to the microneedle array), desmopressin acetate was collected as follows. The skin surface was wiped with Kimwipes® impregnated with ethanol, and the amount of the drug collected from the skin was investigated by measuring the drug in the Kimwipes® with a HPLC. The collected microneedle array was immersed in 75% methanol, and the amount of the collected drug was measured with a HPLC.

Data set [2] in a line: in vivo. Set-up: species or system SD rat. To be noted: rat. The protocol: The hair of the nine-week old male SD rat's abdomen was removed with a hair clipper and a shaver. […] Also, the microneedle array after the administration was immersed in 75% methanol, and the amount of the collected drug was measured with a HPLC.

`NC(=O)CC[C@@H]1NC(=O)[C@H](Cc2ccccc2)NC(=O)[C@H](Cc2ccc(O)cc2)NC(=O)CCSSC[C@@H](C(=O)N2CCC[C@H]2C(=O)N[C@H](CCCN=C(N)N)C(=O)NCC(N)=O)NC(=O)[C@H](CC(N)=O)NC1=O` [desmopressin acetate]: in data set [1], the “Needles after 1 hour adhesion C (residual drug on microneedle array)” value is less than 0.025 µg and the “Skin after 1 hour adhesion D (residual drug on skin surface)” value was less than 0.025 µg. In data set [2] (male, SD, 4.88 ug), this compound registered an AUC of 14.3 ng·h/mL. For the same compound, in data set [2], the Skin absorption amount is more than 4.83 and the “Transfer into the blood (change in blood levels, FIG. 8)” value was “rapidly transferred in the blood”. Besides, in data set [2] (0.5 h), the “Amount remained on microneedle array” value is on record as less than 0.025 and the “Amount remained on skin surface” value is less than 0.025.
